Experimental data taken from article PMC11016601, “Exploring the bioaccessibility and intestinal absorption of major classes of pure phenolic compounds using in vitro simulated gastrointestinal digestion” (Heliyon, 2024).
Converted amounts (≈) assume the structure as drawn. “And” between values parts separate entries of the source, which are not always exact repeats. Equal entries are not always repeated. Where two headings read alike, the source gives them in different places. Marks after values point to notes of the source that are not given here.

How the values were obtained:
[1] = In vitro simulated gastrointestinal digestion (SGD, INFOGEST 2.0): concentration and bioaccessibility by UHPLC-DAD-MSn; conditions: for Bioaccessibility (%), initial solution (IS): reference
Procedure: Preliminary solubility tests in different solvents, namely water, sodium phosphate buffer (26.8 mM, pH 6.1), ethanol, and also a mixture of ethanol with both water and sodium phosphate buffer, were carried out for each PC (data not shown), to prevent erroneous data arising from compounds precipitation. Ethanol percentages used in these preliminary solubility tests were 10, 15, and 20% (v/v).
Each PC solubilized in ethanol:water (15% v/v) was then submitted to an in vitro SGD (INFOGEST 2.0), according to a standardized protocol (Fig. 2). In order to determine whether the interaction between the compounds and enzymes led to an underestimation of their content, each PC solution was submitted to the same digestion procedure, replacing the enzyme solutions with water, which were designed as controls, henceforth this will be the term used. Each sample and control were submitted to three independent in vitro digestion simulations, and after each digestion phase, a sample/control was collected and further analyzed and quantified by UHPLC-DAD-MSn.
(§1) Mouth digestion of each PC solution (1 mL) was diluted in 0.8 mL of simulated salivary fluid (SSF) and α-amylase (75 U mL-1). Then, the mixture was incubated for 2 min at 37 °C under agitation (200 rpm). In order to start gastric digestion, pH was adjusted to 3.0 using 1 M aqueous HCl and then, a pepsin solution (2000 U mL-1) and simulated gastric fluid (SGF) were added. Subsequently, the mixture was incubated for 2h, at 37 °C and 130 rpm orbital agitation for the stomach digestion. Finally, the small intestine digestion simulation was performed after pH adjustment to 7.0 using 1 M aqueous […] and the addition of pancreatin (100 U mL-1), bile salts solution (10 mM) and simulated intestinal fluid (SIF), during 2 h, at 37 °C with 45 rpm orbital agitation. Natural small intestine absorption was also simulated, by placing the remaining sample in a dialysis membrane, and immersed in distilled water overnight at room temperature.
At each sampling point, an aliquot (0.5 mL) from each of the three replicates was collected. The enzymatic activity was stopped immediately by adding pure methanol to each aliquot (1:1, v/v) to promote enzyme precipitation and subsequently centrifuged at 10 000 g and 4 °C for 5 min. The supernatants were filtered with a 0.2 μm nylon filter. To determine the concentration of each sample or control, it was considered the following dilution factor – 1:2, 1:4 and 1:8 for oral, gastric and intestinal digestion phase, respectively.
The bioaccessibility percentage (B%) of each PC was calculated using equation (1):(1) B(%)=[DS]/[IS]×100 where IS is the initial concentration of PCs in ethanol:water (15% v/v) solutions, DS is the concentration of each collected sample or control (without enzymes).
(§2) The values of B% and IA% were the average of the three replicates performed, with the calculated standard deviation.
PCs were analyzed in a UHPLC system equipped with a variable loop Accela autosampler (set at 16 °C), an Accela 600 LC pump, and an Accela 80 Hz photo diode array detector (DAD) (Thermo Fisher Scientific, San Jose, CA, USA). Each sample was prepared in methanol:water (1:1, v/v) and filtered through a 0.2 μm nylon syringe filter. […] The mobile phase was composed of acetonitrile (A) and water:acetonitrile (99:1, v/v) (B), both with 0.1 % of formic acid. The gradient elution was performed as follows: 0–1min: 99% B; 1–17 min: 99-73% B, 17–20 min: 73-0% B, 20–25 min: 0–99% B, followed by re-equilibration of the column at 99% B for 4 min.

[2] = parameters: method as in earlier work; conditions: cited from earlier work
[3] = Simulation of intestinal absorption using a dialysis membrane (3 kDa) after in vitro SGD
Excerpt: HPLC-grade methanol, water, and acetonitrile were supplied by Fisher Scientific Chemicals. The enzymes α-amylase (A1031), pepsin from porcine stomach mucosa (P7012), pancreatin from porcine pancreas (P7545), and bile salts (B863) were purchased from Sigma-Aldrich (Taufkirchen, Germany). The rabbit gastric extract (RGE15) with gastric lipase activity was purchased from Lipolytech (Marseille, France). The ethanol was purchased from Merck (Algés, Portugal). A dialysis membrane with a molecular pore size of 3 kDa was purchased from Spectra/Pro (Spectrum Lab, Breda, Netherlands).
as §1
Furthermore, to determine the intestinal absorption, the aliquots collected inside the dialysis membrane were analyzed. The concentration of these samples (from inside of the membrane) corresponds to the amount of each PC that has not passed through to the outside of the membrane.
as §2

[4] = parameters: method as in PMID 19375897; conditions: cited from earlier work
Caco-2 cell monolayers = conditions: Caco-2 monolayers; cited from earlier work
[5] = parameters: method as in doi:10.1016/J.JFF.2016.08.003; conditions: cited from earlier work
[6] = controls (without enzymes), gastric phase
[7] = controls (without enzymes), initial solution
[8] = controls (without enzymes), intestinal phase
[9] = controls (without enzymes), oral phase
[10] = samples with enzymes, after gastric digestion pH 3.0
[11] = samples with enzymes, after intestinal digestion pH 7.0
[12] = samples with enzymes, after oral digestion
[13] = samples with enzymes, gastric phase
[14] = samples with enzymes, intestinal phase
[15] = samples with enzymes, oral phase
[16] = samples, initial ethanol:water (15% v/v) solution

SMILES | Bioaccessibility (%), oral phase (O) ([1]; 2 min) | Bioaccessibility (%), gastric phase (G) [1, 6] | Concentration, gastric phase (G) [1, 6] [ng/mL] | Concentration, initial solution (IS) [1, 7] [ng/mL] | Bioaccessibility (%), initial solution (IS) [1, 7] | Bioaccessibility (%), intestinal phase (I) [1, 8] | Concentration, intestinal phase (I) [1, 8] [ng/mL] | Bioaccessibility (%), oral phase (O) [1, 9] | Concentration, oral phase (O) [1, 9] | Concentration, gastric phase (G) [1, 10] [ng/mL] | Concentration, intestinal phase (I) [1, 11] [ng/mL] | Concentration, oral phase (O) [1, 12] [µg/mL] | Bioaccessibility (%), gastric phase (G) [1, 13] | Bioaccessibility (%), intestinal phase (I) [1, 14] | Bioaccessibility (%), oral phase (O) [1, 15] | Concentration, initial solution (IS) [1, 16] [ng/mL] | Bioaccessibility (%), initial solution (IS) ([1]; samples, initial solution) | permeability class from Papp, apical-to-basolateral direction (Caco-2 cell monolayers) | further results
O=c1cc(-c2ccc(O)cc2)oc2cc(O)cc(O)c12 [APG, apigenin] | 127.10 ± 1.17 ^a,b % | 15.20% and 15.20 ± 3.04 ^d % | 1420 ± 280 | 9330 | 100 ^c % | 158.32 ± 5.05 ^a % | 14780 ± 470 | 134.98 ± 8.17 ^b % | 12.60 ± 0.76 µg/mL | 2580 ± 470 | 13740 ± 1220 | 11.86 ± 0.11 | 27.60% and 27.60 ± 5.02^ c % | 147.20% and 147.20 ± 13.05 ^a % | 127.10% | 9330 | 100 ^b % |  | bioaccessible fraction after intestinal digestion relative to the gastric phase [2]: 2 fold
O=c1c(O)c(-c2ccc(O)c(O)c2)oc2cc(O)cc(O)c12 [QUE, quercetin] | 57.23 ± 6.98^ b % |  |  | 39890 | 100% | 17.59 ± 1.70% | 7020 ± 700 |  | 13.64** μg mL^-1 | 2740 ± 630 | 7330 ± 100 | 22.83 ± 2.78 | 6.87% and 6.87 ± 1.57^ c % | 18.36% and 18.36 ± 0.26^ c % | 57.23% | 39890 | 100^ a % | low-permeable | Concentration, dialysis phase (D) [3]: below the detection limit; Intestinal absorption (IA%) [3]: very high; solubility ([4]; pH 1.5): 5.5 µg/mL (≈ 18.2 µM); solubility ([4]; pH 7.5): 28.9 µg/mL (≈ 95.6 µM)
C[C@@H]1O[C@@H](OC[C@H]2O[C@@H](Oc3c(-c4ccc(O)c(O)c4)oc4cc(O)cc(O)c4c3=O)[C@H](O)[C@@H](O)[C@@H]2O)[C@H](O)[C@H](O)[C@H]1O [RUT, rutin] |  | 97.20 ± 2.29 ^a,b % | 317060 ± 7460 | 326190 | 100 ^a,b % | 87.44 ± 5.94 ^b % | 285210 ± 19380 | 101.57 ± 2.61^ a % | 331.30 ± 8.52 µg/mL | 320450 ± 11330 | 265680 ± 13370 | 281.60 ± 67.69 | 98.24% and 98.24 ± 3.47^ a % | 81.45% and 81.45 ± 4.10^ a % | 86.33% and 86.33 ± 20.75^ a % | 326190 | 100^ a % | low-permeable | formation of metabolites during in vitro SGD (UHPLC-DAD-MSn) ([1]; samples with enzymes): produced a metabolite after intestinal digestion simulation; Concentration, dialysis phase (D) ([3]; controls (without enzymes), aliquot from inside the dialysis membrane): 15120 ± 5540 ng/mL; Intestinal absorption (IA%) ([3]; controls (without enzymes), dialysis membrane): 94.75% and 94.75 ± 1.72%; Concentration, dialysis phase (D) ([3]; samples with enzymes, aliquot from inside the dialysis membrane): 22240 ± 1520 ng/mL; Intestinal absorption (IA%) ([3]; samples with enzymes, dialysis membrane): 91.63% and 91.63 ± 0.28%; percentage collected from inside of dialysis membrane ([5]; after in vitro gastrointestinal digestion): 1.65%; IA% ([5]; dialysis membrane): about 98%
